According to patent US5428031A, “Methods of treating cardiac arrhythmia” (priority 1993, dated 1995):

Tests used:
[1] = tested on: guinea pig ventricular myocytes; assay: frequency-dependent effects on action potential duration (APD90) in isolated ventricular myocytes; assay type: cell-based; conditions: for APD90 percent change at 0.01 µM / APD90 percent change at 0.03 µM / APD90 percent change at 0.1 µM: Cavia porcellus, Ventricular myocyte; for APD90 percent change at 0.01 µM: 10 nM; for APD90 percent change at 0.03 µM: 30 nM; for APD90 percent change at 0.1 µM: 100 nM; for APD90 % Change: Washout
Protocol: Guinea pig ventricular myocytes were isolated using a modification of the procedure described by Mitra R and Morad M., "A Uniform Enzymatic Method for Dissociation of Myocytes from Hearts and Stomachs of Nertilorates", Am. J. Physiol. 249:H1056-60 (1985). Excised hearts were perfused through the aorta (retrograde fashion) at a rate of 10 ml/min with oxygenated, warmed (37° C.) solutions described below. The heart was initially perfused for 7 minutes with a Tyrode's solution containing, in mM: 132 NaCl, 4 KCl, 1.2 MgCl2, 10 HEPES (formal name N-2-Hydroxyethylpiperazine-N-2-ethanesulfonic acid), 5 glucose, pH=7.2. The head was then perfused with the same nominally Ca^2+ -free solution containing 150 units/ml Type II collagenase (Worthington) and 0.5 units/ml Type XIV protease (Sigma) for 8 minutes. This perfusate was followed by a Tyrode's solution containing 0.2 mM CaCl2 (without enzymes) for 5 minutes. The digested ventricles were cut into small pieces and gently shaken until cells were visibly dispersed. The cells were stored at room temperature until use, within 8 hours after isolation.
Cell preparation: Same as described in section I.
Transmembrane action potential measurements were made using a technique similar to that described previously by Salata, J. J. and Wasserstrom, J. A. "Effects of quinicline on action potentials and ionic currents in isolated canine ventricular myocytes", Circ. Res. 62:324-337, 1988. The isolated ventricular myocytes were transferred to a glass bottom experimental perfusion chamber (12×25 mm) filled with a HEPES-Tyrode's solution containing in mM: 132 NaCl, 4 KCl, 1.8 CaCl2, 1.2 MgCl2, 10 HEPES, 5 glucose, pH=7.2 to a height of 2 mm. After the myocytes settled to the bottom of the chamber, they were continuously superfused with preheated HEPES-Tyrode's solution at a rate of 2.0 ml/min. The temperature was monitored and maintained at 36°±0.5° C. The experimental chamber was placed on the stage of an inverted microscope (Nikon Diaphot-TMD) to view the cells. Transmembrane potentials were recorded by means of conventional glass microelectrodes that were filled with 3M KCl and had tip resistances of 40-60 M.OMEGA.. The microelectrode was connected through a Ag--AgCl electrode to the headstage preamplifier (model HS-2, gain=1.0) of an operational amplifier with a high input impedance and variable input capacitance neutralization (Axoclamp -2A, Axon Instruments, Foster City, Calif.). The voltage drop across the microelectrode produced by current injection was compensated electronically with an active bridge circuit immediately-before impalement of a cell. The experimental bath was grounded through a 3M KCl agar bridge and a Ag--AgCl junction. The microelectrodes were positioned carefully at the cell surface using a hydraulic micromanipulator (Narishige Model MO-303, Greenvale, N.Y.). Penetration of the cell membrane was achieved by briefly (1-3 msec)increasing the input capacitance neutralization to cause oscillation of the amplifier. After establishing a stable microelectrode seal, the myocyte was lifted off the bottom of the chamber to allow complete superfusion of the cell. Action potentials were generated by passing current pulses of 1 msec in duration, and with an intensity of 1.2 times threshold at varying stimulus rates through the recording electrode. Cells were allowed to stabilize for 20 minutes before collection of data began. Voltage signals were digitized using an analog to digital converter (TL-1, DMA interface, Axon Instruments, Foster City, Calif.) at a sampling frequency of 2 kHz. Data acquisition and analysis were performed with pClamp software (Axon Instruments, Foster City, Calif.) and an AST 486 computer (Irvine, Calif.). Action potentials were stimulated at rates of either 60, 120, and 180 beats/min and were allowed to stabilized for 1 minute at each rate. […]

[2] = tested on: conscious dogs; assay: electrocardiographic QT interval in conscious dogs, oral; assay type: in vivo, dog
Protocol: Trained, female mongrel dogs, in the weight range of 8 to 16 kg and instruimented with chronic arterial access ports, were deprived of food 18 to 24 hours prior to the study. At test time, the dog was placed in an Alice King Chatham nylon mesh sling for light restraint. Four Grass Instrument Co. Type E2 Platinum Subdermal Electrodes were affixed to the limbs of the dog and connected to a Hewlett-Packard 4700A Cardiograph multi-lead electrocardiogram (ECG) recorder. After approximately a 30-minute stabilization period, one or two pretreatment Lead II ECG tracings were taken over approximately a 30-second interval. Dogs were then dosed via gavage with labrafil (vehicle) or test compound. The volume, administered was 2.0 ml/kg followed by a 15 ml tap-water flush. Lead II ECG recordings were obtained at 15, 30, and 60 minutes and every 30 minutes thereafter for five hours post-drug administration. Dogs were also monitored for blood pressure changes via a Modular Instruments data acquisition system and transducer connected to the arterial access port. Final ECG traces were taken at approximately 24 hours post-treatment. Average QT interval lengths were determined for each time point and QTc values were calculated to correct for variations in heart rate (QTc =QT/√R-R).

Row | Structure (SMILES) | APD90 percent change at 0.01 µM ([1]; 60 beats/min) | APD90 percent change at 0.01 µM ([1]; 120 beats/min) | APD90 percent change at 0.01 µM ([1]; 180 beats/min) | APD90 percent change at 0.03 µM ([1]; 60 beats/min) | APD90 percent change at 0.03 µM ([1]; 120 beats/min) | APD90 percent change at 0.03 µM ([1]; 180 beats/min) | APD90 percent change at 0.1 µM ([1]; 60 beats/min) | APD90 percent change at 0.1 µM ([1]; 120 beats/min) | APD90 percent change at 0.1 µM ([1]; 180 beats/min) | APD90 % Change ([1]; 60 beats/min) | APD90 % Change ([1]; 120 beats/min) | APD90 % Change ([1]; 180 beats/min) | reversibility of APD90 increase ([1]; after 20 min of washout) | frequency dependence of APD90 increase ([1]; at higher concentrations) | frequency dependence of APD90 increase ([1]; at lower concentrations (10 nM)) | effect on action potential duration ([1]; isolated guinea pig myocytes) | other ECG or cardiovascular effects [2] | prolongation of ECG QT interval [2]
1 | CN1C(=O)[C@H](NC(=O)/C=C/c2ccc(Cl)cc2Cl)N=C(c2ccccc2)c2ccccc21 [Example 26, E-(+)-N-[(3R)-2,3-Dihydro-1-methyl-2-oxo-5-phenyl-1H-1,4-benzo-diazepin-3-yl]-3-(2,4-dichlorophenyl)-2-propenamide] | 9.4% | 10.1% | 12.4% | 16% | 14.8% | 14.4% | 24.7% | 24.3% | 22.9% | 4.2% | 5.3% | 5.9% | nearly completely reversible | frequency-independent manner | forward frequency-dependent manner | concentration and rate-dependent increases in the action potential duration | – | –
2 | Cc1cccc(NC(=O)N[C@@H]2N=C(c3ccccc3)c3ccccc3N(C)C2=O)c1 [Compound 4, (R)-N-(2,3-dihydro-1-methyl-2-oxo-5-phenyl-1H-1,4-benzodiazepin-3-yl)-N'-(3-methylphenyl)urea] | – | – | – | – | – | – | – | – | – | – | – | – | – | – | – | – | no other ECG or cardiovascular effects | dose-related prolongation of ECG QT interval
